The subject of one data set is cyclin D1 protein. The note with it: in vitro and in vivo, aerodigestive tract cancers; cited from earlier work.
The subject of a further data set is human tumor xenografts. To be noted: animals; cited from earlier work.
For data set [1], the system named is human lung cancer A549 cells. As to the kind of experiment: Erlotinib accumulation and stereoisomerization in A549 cells and treatment media (LC-MS-MS). The format is cell-based. The note with it: for conversion of parent drug to the 1.78 minute stereoisomer in the presence of cells: media with A549 cells. The protocol:
Analysis of erlotinib metabolism was carried out using erlotinib-resistance cancer cells (human lung cancer A549 cells). Cells were exposed to achievable clinical doses (3 μM) of erlotinib and then lysed at various times following exposure to the drug. Relative erlotinib concentrations were determined in the A549 cell treatment media and compared to levels of erlotinib containing media incubated in the absence of cells as a control. Erlotinib concentrations were assessed using a liquid chromatography dual mass spectrometric method. […] Based on an analysis of chemical structure, only one stereoisomer of the parent drug could account for the 1.78 minute variant form. The stereoisomer migrating at 1.78 minutes represents the L or S configuration of this molecule, wherein the configuration is determined by performing liquid chromatographic separation of the two stereoisomers followed by nuclear magnetic resonance (NMR) analysis of each.
Culture of A549 human lung cancer cells were carried out in Ham's F12 media with L-glutamine containing 10% fetal bovine serum, amphoterecin B, penicillin, and streptomycin. Cells were plated at a density of 300,000 cells per well in a 6 well plate. Cells were allowed to adhere overnight, media was aspirated and 3 mL of treatment media containing 3 μM erlotinib was added to each well. At the same time, 3 mL of the same media was added to wells that contained no cells as a control. One hundred μL of the media was removed from the wells immediately prior to harvesting the cells at various time points. The remaining media was removed and 250 μL of distilled deionized water was added to each well. Cells were also disrupted with a rubber policeman. Each media or cell extract sample was brought to a 1 mL volume with methanol and water (final concentration 50% methanol). Fifty μL of 0.4 M ZnSO4 was added to each sample. Samples were vortexed for 10 seconds and centrifuged at 13,000 RCF for 5 minutes. The supernatants from each were subjected to LC-MS-MS chromatographic analysis using a Waters® Model 2795 system equipped with a Waters® X-Terra® MS column. The mobile phase was composed of 70% methanol containing 0.1% formic acid at a flow rate of 0.15 mL per minute. Dual mass spectroscopy was performed with 394 for the initial mass and 278 for the daughter ion (after collision using argon gas). Dual mass spectroscopic analysis of midazolam was used as an internal standard and was performed at the same time using 326 as the mass for the parent and 291 for the daughter ion. Data was collected and analyzed using Masslynx™ version 3.4 software.

Data set [2] concerns chemotherapy refractory non-small cell lung cancer. The note with it: cited from earlier work.

For `C#Cc1cccc(Nc2ncnc3cc(OCCOC)c(OCCOC)cc23)c1` [erlotinib, N-(3-ethynylphenyl)-6,7-bis(2-methoxyethoxy)quinazolin-4-amine], the “effect on expression of cyclin D1 protein” value with cyclin D1 protein is recorded as “represses expression of cyclin D1 protein”. Further, the “dose inhibiting proliferation of human tumor xenografts” value in the data set with human tumor xenografts is roughly 10 mg/kg. The “intracellular concentration of erlotinib by 8 hours” value in data set [1] (A549 cells, 3 μM erlotinib, 8 hours) was “nearly undetectable levels”. The “time at which intracellular concentrations of erlotinib peaked” value in data set [1] (A549 cells, 3 μM erlotinib, cell lysates) is 4 h. For the same molecule, in data set [1] (A549 treatment media, 3 μM erlotinib), the “total erlotinib concentrations in the treatment media over the time course” value was “did not vary significantly”. Further, in data set [1] (control media without cells, throughout the time course), the “stereoisomer present in the media in the absence of cells” value is “parent drug constituted the most abundant stereoisomer”. In addition, the “conversion of parent drug to the 1.78 minute stereoisomer in the presence of cells” value in data set [1] (4 hours) was “some conversion”; in data set [1] (8 hours) it was “complete conversion”. The “toxicity at clinical dose” value in data set [2] (doses in the range of 150 mg, patients) is “little reported toxicity”. Also, the “dose showing the ability to affect tumor growth” value in data set [2] (patients with chemotherapy refractory non-small cell lung cancer) was roughly 150 mg.

The values are drawn from patent publication US20080207653A1, “Compositions and Method for Increasing the Efficacy of Epidermal Growth Factor Receptor Tyrosine Kinase Inhibitors” (priority 2005, published 2008).
